Source: patent US20120328569A1, “INHIBITORS OF HEPATITIS C VIRUS NS5B POLYMERASE” (priority 2010, published 2012)

Tested on: HCV genotype 1b replicon
Test: HCV replicon assay, cell ELISA with antibody to replicon-encoded NS3/4A (genotype 1b replicon)
Assay type: cell-based, hepatitis C virus
Conditions: Hepatitis C virus, 96 h, read-out: 1b IC50(nM), HCV genotype 1b replicon; 96 hours incubation; NS3/4A cell ELISA
Experimental: The HCV NS5B inhibitory activity of the present compounds may be tested using assays known in the art. The HCV NS5B polymerase inhibitors described herein have activities in a genotype 1b replicon assay as described in the Examples. The assay is performed by incubating a replicon harboring cell-line in the presence of inhibitor for a set period of time and measuring the effect of the inhibitor on HCV replicon replication either directly by quantifying replicon RNA level, or indirectly by measuring enzymatic activity of a co-encoded reporter enzyme such as luciferase or β-lactamase. By performing a series of such measurements at different inhibitor concentrations, the effective inhibitory concentration of the inhibitor (EC50 or EC90) is determined. See Jan M. Vrolijk et al., A replicons-based bioassay for the measurement of interferons in patients with chronic hepatitis C, 110 J. VIROLOGICAL METHODS 201 (2003). Such assays may also be run in an automated format for high through-put screening. See Paul Zuck et al., A cell-based β-lactamase reporter gene assay for the identification of inhibitors of hepatitis C virus replication, 334 ANALYTICAL BIOCHEMISTRY 344 (2004).
Measurement of inhibition by compounds was performed using the HCV replicon system. Several different replicons encoding different HCV genotypes or mutations were used. In addition, potency measurements were made using different formats of the replicon assay, including different ways of measurements and different plating formats. See Jan M. Vrolijk et al., A replicons-based bioassay for the measurement of interferons in patients with chronic hepatitis C, 110 J. VIROLOGICAL METHODS 201 (2003); Steven S. Carroll et al., Inhibition of Hepatitis C Virus RNA Replication by 2′-Modified Nucleoside Analogs, 278(14) J. BIOLOGICAL CHEMISTRY 11979 (2003). However, the underlying principles are common to all of these determinations, and are outlined below.
Stable neomycin phosphotransferase encoding replicons-harboring cell lines were used, so all cell lines were maintained under G418 selection prior to the assay. Potency was determined using a cell ELISA assay with an antibody to the replicons encoded NS3/4a protease. See Caterina Trozzi et al., In Vitro Selection and Characterization of Hepatitis C Virus Serine Protease Variants Resistant to an Active-Site Peptide Inhibitor, 77(6) J. Virol. 3669 (2003). To initiate an assay, replicon cells were plated in the presence of a dilution series of test compound in the absence of G418. Typically, the assays were performed in a 96-well plate formate for manual operation, or a 384-well plate format for automated assay. Replicon cells and compound were incubated for 96 hours. At the end of the assay, cells were washed free of media and compound, and the cells were then lysed. RNA was quantified indirectly through detection of replicon-encoded NS3/4A protein levels, through an ELISA-based assay with an antibody specific for NS3/4A. IC50 determinations were calculated as a percentage of a DMSO control by fitting the data to a four-parameter fit function and the data obtained is provided in the table below.

**Q.** With CNC(=O)c1c(-c2ccc(F)cc2)oc2cc(N(C)S(C)(=O)=O)c(-c3ccc4c(c3)-c3[nH]c5ccccc5c3C(C(C)(C)C)O4)cc12 (stereo not drawn) [Example 590] as the molecule, how does the IC50 read?
**A.** 44.1 nM

**Q.** For CNC(=O)c1c(-c2ccc(F)cc2)oc2cc(N(Cc3cccnc3)S(C)(=O)=O)c(-c3ccc(OC)c(-c4nc5c(C#N)cccc5o4)c3)cc12 [Example 708], which IC50 is on record?
**A.** 3.95 nM

**Q.** With CNC(=O)c1c(-c2ccc(F)cc2)oc2cc(N(CCCO)S(C)(=O)=O)c(-c3cc(F)cc(-c4nc5ncccc5o4)c3)cc12 [Example 856] as the molecule, how does the IC50 read?
**A.** 4 nM

**Q.** With CN(C(=O)c1c(-c2ccc(F)cc2)oc2cc(N(C)S(C)(=O)=O)c(-c3cccc(-c4cc5ccccc5[nH]4)c3)cc12)c1ccncc1 [Example 848] as the molecule, how does the IC50 read?
**A.** 6440 nM

**Q.** How did the IC50 turn out when CNC(=O)c1c(-c2ccc(F)cc2)oc2cc(N(CC3(C)COC3)S(C)(=O)=O)c(-c3cccc(-c4nc5ncccc5o4)c3)cc12 [Example 723] was run?
**A.** 2.31 nM

**Q.** How did the IC50 turn out when CNC(=O)c1c(-c2ccc(F)cc2)oc2cc(N(CCC(C)(C)F)S(C)(=O)=O)c(-c3cccc(-c4nc5ncccc5o4)c3)cc12 [Example 797] was run?
**A.** 2.43 nM

**Q.** With CNC(=O)c1c(-c2ccc(F)cc2)oc2cc(N(C)S(C)(=O)=O)c(-c3cc(C(=O)O)cc(-c4nc5c(F)cccc5o4)c3)cc12 [Example 650, 3-(4-fluorobenzo[d]oxazol-2-yl)-5-(2-(4-fluorophenyl)-3-(methylcarbamoyl)-6-(N-methylmethylsulfonamido)benzofuran-5-yl)benzoic acid] as the molecule, how does the IC50 read?
**A.** 55.7 nM

**Q.** Which IC50 does the source give for CNC(=O)c1c(-c2ccc(F)cc2)oc2cc(N(Cc3cccnc3)S(C)(=O)=O)c(-c3ccc(OC)c(-c4nc5c(F)cccc5o4)c3)cc12 [Example 707] here?
**A.** 4.93 nM

**Q.** With CNC(=O)c1c(-c2ccc(F)cc2)oc2cc(N(C(C)CF)S(C)(=O)=O)c(-c3cccc(-c4nc5ncccc5o4)c3)cc12 (stereo not drawn) [Example 875] as the molecule, how does the IC50 read?
**A.** 2.1 nM

**Q.** Which IC50 does the source give for CNC(=O)c1c(-c2ccc(F)cc2)oc2cc(N(C)S(C)(=O)=O)c(-c3cc(-c4nc5ncccc5o4)ccn3)cc12 [Example 509] here?
**A.** 3 nM

**Q.** Which IC50 does the source give for CNC(=O)c1c(-c2ccc(F)cc2)oc2cc(N(C)S(C)(=O)=O)c(-c3cccc(-c4cc5c(o4)CCN(C(C)=O)C5)c3)cc12 [Example 517] here?
**A.** 7 nM

**Q.** Which IC50 does the source give for CNC(=O)c1c(-c2ccc(F)cc2)oc2cc(N(C)S(C)(=O)=O)c(-c3ccc(O)c(-c4nc5c(Cl)cccc5o4)c3)cc12 [Example 607] here?
**A.** 27.1 nM

Same assay, conditions: Hepatitis C virus, 96 h, read-out: Replicon 1b IC50 (nM), HCV genotype 1b replicon cells, 96 hours incubation, NS3/4A ELISA readout

**Q.** Which IC50 does the source give for CNC(=O)c1c(-c2ccc(F)cc2)oc2cc(N(C)C(C)c3ccccc3)c(-c3ccccc3)cc12 (stereo not drawn) [Example 71, 2-(4-fluorophenyl)-N-methyl-6-[methyl(1-phenylethyl)amino]-5-phenyl-1-benzofuran-3-carboxamide] here?
**A.** > 2500 nM

**Q.** For CNC(=O)c1c(-c2ccc(F)cc2)oc2cc(N(CC(C)C)S(C)(=O)=O)c(-c3ccccc3)cc12 [Example 16, 2-(4-fluorophenyl)-N-methyl-6-[(2-methylpropyl) (methylsulfonyl)amino]-5-phenyl-1-benzofuran-3-carboxamide], which IC50 is on record?
**A.** 68 nM

**Q.** For CNC(=O)c1c(-c2ccc(F)cc2)oc2cc(N(C)S(C)(=O)=O)c(-c3ccc(OC)c(-c4nc5ccc(Cl)cc5o4)c3)cc12 [Example 188], which IC50 is on record?
**A.** 5.1 nM

**Q.** For CNC(=O)c1c(-c2ccc(F)cc2)oc2cc(N(C)S(C)(=O)=O)c(-c3cc(OC)cc(-c4cc5cccnc5[nH]4)c3)cc12 [Compound 378], which IC50 is on record?
**A.** 1.8 nM

**Q.** Which IC50 does the source give for CNC(=O)c1c(-c2ccc(F)cc2)oc2cc(N(C)S(C)(=O)=O)c(-c3cccc(-c4nc5ncccc5o4)c3OC)cc12 [Example 205] here?
**A.** 11.9 nM

**Q.** With CNC(=O)c1c(-c2cccc(-c3cc4c(C(=O)NC)c(-c5ccc(F)cc5)oc4cc3N(C)S(C)(=O)=O)c2)[nH]c2ccccc12 [Compound 377] as the molecule, how does the IC50 read?
**A.** 1.2 nM

**Q.** Which IC50 does the source give for CNC(=O)c1c(-c2ccc(F)cc2)oc2cc(N(C)S(C)(=O)=O)c(-c3ccc(OC)c(-c4nc5cccnc5[nH]4)c3)cc12 [Example 312] here?
**A.** 1.1 nM

**Q.** CNC(=O)c1c(-c2ccc(F)cc2)oc2cc(N(C)S(C)(=O)=O)c(-c3ccc(OC(C)C)c(-c4nc5ccccc5o4)c3)cc12 [Example 193] was tested. Which IC50 did it give?
**A.** 11.6 nM

**Q.** How did the IC50 turn out when CNC(=O)c1c(-c2ccc(F)cc2)oc2cc(N(C)S(C)(=O)=O)c(-c3cccc(-c4nc5ccc(C)cc5[nH]4)c3)cc12 [Example 154, 2-(4-fluorophenyl)-N-methyl-5-[3-(6-methyl-1H-benzimidazol-2-yl)phenyl]-6-[methyl (methylsulfonyl)amino]-1-benzofuran-3-carboxamide] was run?
**A.** 4 nM

**Q.** Which IC50 does the source give for CNC(=O)c1c(-c2ccc(F)cc2)oc2cc(N(C)S(C)(=O)=O)c(-c3cccc(-c4nc5c(C)ccnc5[nH]4)c3)cc12 [Example 330] here?
**A.** 2.7 nM

**Q.** CNC(=O)c1c(-c2ccc(F)cc2)oc2cc(N(C)S(C)(=O)=O)c(-c3cc(OC)cc(-c4nc5ccccc5o4)c3)cc12 [Example 176] was tested. Which IC50 did it give?
**A.** 3.9 nM

**Q.** How did the IC50 turn out when CNC(=O)c1c(-c2ccc(F)cc2)oc2cc(N(C)S(C)(=O)=O)c(-c3cccc(-c4cc5ccc(OC)cc5[nH]4)c3)cc12 [Example 356] was run?
**A.** 5.9 nM

**Q.** Which IC50 does the source give for CCS(=O)(=O)N(C)c1cc2oc(-c3ccc(F)cc3)c(C(=O)NC)c2cc1-c1cccc(-c2nc3ncccc3o2)c1 [Compound 401] here?
**A.** 1.8 nM

**Q.** How did the IC50 turn out when CNC(=O)c1c(-c2ccc(F)cc2)oc2cc(N(C)S(C)(=O)=O)c(-c3cccc(-c4nnc(-c5ccccc5)o4)c3)cc12 [Example 137, 2-(4-fluorophenyl)-N-methyl-6-[methyl (methylsulfonyl)amino]-5-[3-(5-phenyl-1,3,4-oxadiazol-2-yl)phenyl]-1-benzofuran-3-carboxamide] was run?
**A.** 6 nM

**Q.** For CNC(=O)c1c(-c2ccc(F)cc2)oc2cc(N(C)S(C)(=O)=O)c(-c3cccc(-c4nc5cc(F)ccc5o4)c3)cc12 [Example 158], which IC50 is on record?
**A.** 4.8 nM

**Q.** CNC(=O)c1c(-c2ccc(F)cc2)oc2cc(N(C)S(C)(=O)=O)c(-c3cccc(-c4nc5cc(NS(=O)(=O)c6ccccc6)ccc5o4)c3)cc12 [Example 286] was tested. Which IC50 did it give?
**A.** 5.8 nM

**Q.** For CNC(=O)c1c(-c2ccc(F)cc2)oc2cc(N(C)S(C)(=O)=O)c(-c3cccc(-c4nc5nccnc5s4)c3)cc12 [Example 272], which IC50 is on record?
**A.** 3 nM

**Q.** With CNC(=O)c1c(-c2ccc(F)cc2)oc2cc(N(C)S(C)(=O)=O)c(-c3ccc(F)c(-c4nc5cncnc5[nH]4)c3)cc12 [Example 342] as the molecule, how does the IC50 read?
**A.** 5.1 nM

**Q.** Which IC50 does the source give for CNC(=O)c1c(-c2ccc(F)cc2)oc2cc(N(C)S(C)(=O)=O)c(-c3ccc(F)c(-c4nc5ccccc5o4)c3)cc12 [Example 168] here?
**A.** 3.9 nM

**Q.** Which IC50 does the source give for CNC(=O)c1c(-c2ccc(F)cc2)oc2cc(N(CCO)S(C)(=O)=O)c(-c3ccc(OC)c(-c4nc5ncccc5o4)c3)cc12 [Compound 387] here?
**A.** 2.3 nM

**Q.** For CNC(=O)c1c(-c2ccc(F)cc2)oc2cc(N(C)S(C)(=O)=O)c(-c3ccc(F)c(-c4nc5cc(C)ccc5[nH]4)c3)cc12 [Example 302], which IC50 is on record?
**A.** 3.1 nM

**Q.** CNC(=O)c1c(-c2ccc(F)cc2)oc2cc(N(CCCO)S(C)(=O)=O)c(-c3cccc(-c4nc5ncccc5o4)c3)cc12 [Example 384, 2-(4-fluorophenyl)-6-(N-(3-hydroxypropyl)methylsulfonamido)-N-methyl-5-(3-(oxazolo[4,5-b]pyridin-2-yl)phenyl)benzofuran-3-carboxamide] was tested. Which IC50 did it give?
**A.** 0.9 nM

**Q.** How did the IC50 turn out when CNC(=O)c1c(-c2ccc(F)cc2)oc2cc(N(C)S(C)(=O)=O)c(-c3cc(-c4nc5ncccc5o4)ccc3Cl)cc12 [Example 204] was run?
**A.** 4.5 nM

**Q.** For CNC(=O)c1c(-c2ccc(F)cc2)oc2cc(N(C)S(C)(=O)=O)c(-c3ccc(OCCO)c(-c4nc5ncccc5o4)c3)cc12 [Example 237], which IC50 is on record?
**A.** 2.6 nM

**Q.** With CNC(=O)c1c(-c2ccc(F)cc2)oc2cc(N(C)S(C)(=O)=O)c(-c3cc(F)cc(-c4nc5cccc(F)c5o4)c3)cc12 [Example 161] as the molecule, how does the IC50 read?
**A.** 3.7 nM

**Q.** CONC(=O)c1cccc(-c2cc3c(C(=O)NOC)c(-c4ccc(F)cc4)oc3cc2N(C)S(C)(=O)=O)c1 [Example 99, 2-(4-fluorophenyl)-N-methoxy-5-[3-(methoxycarbamoyl)phenyl]-6-[methyl(methylsulfonyl)amino]-1-benzofuran-3-carboxamide] was tested. Which IC50 did it give?
**A.** 623 nM

**Q.** With CNC(=O)c1c(-c2ccc(F)cc2)oc2cc(N(C)S(C)(=O)=O)c(-c3cc(F)cc(-c4nc5ncc(Cl)cc5o4)c3)cc12 [Example 199] as the molecule, how does the IC50 read?
**A.** 2.9 nM
